Source: patent US8415312B2, “Compound which is a nystatin derivative” (Biosergen AS, priority 2007, dated 2013)
In brackets after ≈: the same amount, converted by molar mass. Several values for one entry are separate records, joined by “and”; a condition that tells them apart may be missing. Equal values may be shown once.

Legend:
[1] = system: Fusarium oxysporum VKM F-140; assay: Antifungal susceptibility study (1), broth microdilution MIC; assay type: cell-based; settings: lowest concentration preventing any visible growth, read at 48 hours, 35° C., RPMI 1640 pH 7.0
Summary of the method: (§1)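 Broth microdilution was run at pH 7.0 with compounds diluted from DMSO solutions and mixed 1:1 with conidial inoculum. Spore suspensions were adjusted to OD530 0.09-0.11 for A. niger or 0.15-0.17 for F. oxysporum, then diluted 1:50. Plates were incubated at 35° C without agitation, and MIC was read at 48 hours as absence of visible growth.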

[2] = system: Aspergillus niger ATCC 16404; assay: as above; assay type: cell-based; settings: lowest concentration preventing any visible growth, read at 48 hours, 35° C., RPMI 1640 pH 7.0
Summary of the method: as §1

[3] = system: Candida albicans ATCC 10231; assay: Antifungal susceptibility study (2), MIC50 by OD490 growth; assay type: cell-based; settings: 50% growth inhibition from regression curve, M19 medium without NaCl, 30° C.
Experimental: The anti-fungal activity of several of the nystatin derivatives was further investigated. […] The anti-fungal activity of a number of the nystatin derivatives was therefore determined in a method which is designed to be more sensitive.
The test organism used for the further testing of polyene macrolide bioactivity was Candida albicans ATCC 10231, grown in 120 μl of standard M19 medium without NaCl (with an inoculum of 1000 cfu per well) and 30 μl of diluted polyene macrolide samples. The antibiotics were diluted in MeOH in series ensuring a spectrum of concentrations which yielded results ranging from complete growth inhibition to no inhibition of the test organism. The test organism cultures with antibiotic dilutions were incubated in 96-well microtiter plates at 30° C. without shaking, and growth was measured as OD490 after 12, 14 and 16 hours on a SpectraMax Plus microtiter plate reader. OD was plotted against antibiotic concentration, and MIC50 was estimated from the regression curve at 50% growth inhibition.

[4] = system: Candida albicans ATCC 14053; assay: Antifungal susceptibility study (1), broth microdilution MIC; assay type: cell-based; settings: lowest concentration preventing any visible growth, read at 48 hours, 35° C., RPMI 1640 pH 7.0
Summary of the method: (§2)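 Broth microdilution in test medium at pH 7.0 with two-fold compound dilutions (DMSO stocks diluted 50-fold into medium), inoculated with freshly grown yeast cultures. Plates were incubated without agitation at 35° C. for C. albicans or 25° C. for C. humicolus. MIC was taken as the concentration with no visible growth, read at 48 hours.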

[5] = system: Cryptococcus humicolus ATCC 9949; assay: as above; assay type: cell-based; settings: lowest concentration preventing any visible growth, read at 48 hours, 25° C., RPMI 1640 pH 7.0
Summary of the method: as §2

erythrocytes = assay: In vitro toxicity study, haemolysis (Tables 11 and 12); assay type: cell-based, horse
Experimental: The toxicity of various nystatin derivatives was tested at 2 and 5 μg/mL and at 25 μM.
Compounds were dissolved in DMSO at 5 mg/mL and 0.1 mL samples with different concentrations were prepared in DMSO. The samples were mixed with 0.9 mL PBS buffer containing 2.5% horse blood (PBS-HB; kept on ice) and incubated at 37° C. for 30 min without agitation.
Cells were pelleted by centrifugation at 5000 rpm for 5 min and haemolysis was evaluated by measuring OD545. 100% haemolysis was defined as the OD545 value obtained from a suspension of 2.5% horse blood in distilled water.

[6] = system: yeasts and filamentous fungi (moulds); assay: Antifungal susceptibility study (1), overall comparison across the test organisms; assay type: cell-based; settings: Table 5 MICs
Experimental: The organisms used for susceptibility testing were: Candida albicans ATCC 14053, Cryptococcus humicolus ATCC 9949, Aspergillus niger ATCC 16404 and Fusarium oxysporum VKM F-140 (=CMI, IMI 90473). Organisms were stored on potato dextrose agar […] 50% glycerol solution at -70° C. For short-term storage, stock cultures were stored on agar […] 4° C. The cultures of yeasts were sub-cultured onto Sabouraud dextrose (SAB) agar and incubated for 24 hours at 35° C. (Candida albicans) or for 48 hours at 25° C. (Cryptococcus humicolus) to obtain a freshly grown pure culture. The cultures of moulds were sub-cultured onto potato dextrose agar and incubated for 7 days at 35° C. […] (Fusarium oxysporum) to ensure maximum sporulation. Sterile 96-well flat-bottomed microtitration plates were used for testing. 100 μl of diluted inocula were dispensed into each microdilution well containing 100 μl of the double dilutions of compounds. Drug-free and yeast/mould-free controls were included. Microdilution trays were incubated at 35° C. (Candida albicans and moulds) or 25° C. (Cryptococcus humicolus) without agitation and observed for the presence or absence of visible growth. […] Minimal inhibitory concentrations (MICs) were read at 48 hours.

[7] = system: mice (C57B1/6xDBA/2)F1 B6D2F1; settings: for LD50 / MTD: single injection into tail vein, probit analysis
Summary of the method: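 Male B6D2F1 mice, 20-22 g, given one tail-vein injection of antibiotic suspended with sodium deoxycholate in phosphate buffer, within 1-1.5 h of preparation. Doses spanned 0% to 100% lethality with at least 3 intermediate doses, in randomized groups of 6 mice.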

Candida albicans = assay: Neutropenic mouse model of disseminated candidosis; assay type: in vivo
Experimental: Mice were rendered neutropenic by injection with cyclophosphamide monohydrate (Fluka, BioChemika, Sigma-Aldrich, Switzerland) intraperitoneally 2×100 mg/kg of body weight 1 day before infection.

Row | SMILES | MIC Fusarium oxysporum VKM F-140 [1] | MIC Aspergillus niger ATCC 16404 [2] | MIC50 [3] | MIC Candida albicans ATCC 14053 [4] | MIC Cryptococcus humicolus ATCC 9949 [5] | Haemolysis of erythrocytes, Mean ± SE (erythrocytes; 5 μg/mL (Table 11)) | Haemolysis of erythrocytes (erythrocytes; 5 μg/mL, individual blood samples # 1-3 (Table 11)) | anti-fungal activity compared with Amphotericin B and S44HP [6] | acute toxicity, times lower than amphotericin B [7] | LD50 [7] | MTD [7] | activity compared with amphotericin B (Candida albicans)
1 | CC1C=CC=CC=CC=CC=CC=CC=CC(OC2OC(C)C(O)C(N)C2O)CC2OC(O)(CC(O)C(O)CCC(O)CC(O)CC(O)CC(=O)OC(C)C(C)C1O)CC(O)C2C(=O)NCCCO (stereo not shown) [Compound 12] | 2 µg/mL (≈ 2.04 µM) | 2 µg/mL (≈ 2.04 µM) | 0.14 µg/mL (≈ 0.143 µM) | 1 µg/mL (≈ 1.02 µM) | 1 µg/mL (≈ 1.02 µM) | 4.4 ± 0.3% | 5% and 4.3% and 4.0% | comparable anti-fungal activity to Amphotericin B and S44HP | – | – | – | –
2 | CC1C=CC=CC=CC=CC=CC=CC=CC(OC2OC(C)C(O)C(N)C2O)CC2OC(O)(CC(O)CCCC(O)CC(O)CC(O)CC(=O)OC(C)C(C)C1O)CC(O)C2C.NC(CCC(=O)O)C(=O)O (stereo not shown) [Compound 25] | – | – | – | – | – | – | – | – | ~20 times | 50.8 mg/kg | 42.8 mg/kg | less active than amphotericin B
3 | CC1C=CC=CC=CC=CC=CC=CC=CC(OC2OC(C)C(O)C(N)C2O)CC2OC(O)(CC(O)CC(O)CC(O)CC(O)CC(O)CC(=O)OC(C)C(C)C1O)CC(O)C2C.NC(CCC(=O)O)C(=O)O (stereo not shown) [Compound 26] | – | – | – | – | – | – | – | – | ~20 times | 50.0 mg/kg | 43.1 mg/kg | less active than amphotericin B
